Legend:
[1] = system: wheat; assay: Test B preemergence/postemergence greenhouse plant response rating 0 to 10; type: in vivo, Triticum aestivum; conditions: 0 to 10 scale
How it was run: (§1)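 Test chemicals, dissolved in a non-phytotoxic solvent, were applied to soil at planting and, at the same time, over foliage of seedlings at the one to four leaf stage.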

[2] = system: giant foxtail; assay: Test C preemergence/postemergence greenhouse plant response rating 0 to 100; type: in vivo, Setaria faberii; conditions: for Plant response rating, Giant foxtail: 62 g/ha, 0 to 100 scale
How it was run: (§2)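 Compounds in non-phytotoxic solvent went onto sandy loam before emergence (seeded one day earlier) or onto plants at the one-to-four leaf stage. Duck salad was treated via flood water (~2.5 cm, maintained) over silt loam.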

[3] = system: speedwell; assay: as above; type: in vivo, Veronica persica; conditions: PREEMERGENCE
Source text: The compounds evaluated in this test were formulated in a non-phytoxic solvent and applied to the soil surface before plant seedlings emerged (preemergence application), to water that covered the soil surface (flood application), and to plants that were in the one-to-four leaf stage (postemergence application). A sandy loam soil was used for the preemergence and postemergence tests, while a silt loam soil was used in the flood test. Water depth was approximately 2.5 cm for the flood test and was maintained at this level for the duration of the test. Plant species in the preemergence and postemergence tests consisted of barley (Hordeum vulgare), bedstraw (Galium aparine), blackgrass (Alopecurus myosuroides), chickweed (Stellaria media), corn (Zea mays), cotton (Gossypium hirsutum), crabgrass (Digitaria sanguinalis), downy brome (Bromus tectorum), giant foxtail (Setaria faberii), lambsquarters (Chenopodium album), morningglory (Ipomoea hederacea), pigweed ([…]), rape (Brassica napus), ryegrass (Lolium multiflorum), sorghum (Sorghum bicolor), soybean (Glycine max), speedwell (Veronica persica), sugar beet (Beta vulgaris), velvetleaf (Abutilon theophrasti), wheat (Triticum aestivum), wild buckwheat (Polygonum convolvulus), and wild oat (Avena fatua). All plant species were planted one day before application of the compound for the preemergence portion-of this test. Plantings of these species were adjusted to produce plants of appropriate size for the post-emergence portion of the test. […] All plant species were grown using normal greenhouse practices. Visual evaluations of injury expressed on treated plants, when compared to untreated controls, were recorded approximately fourteen to twenty one days after application of the test compound. […] A dash (-) response means no test result.

[4] = system: barnyardgrass; assay: Test B preemergence/postemergence greenhouse plant response rating 0 to 10; type: in vivo, Echinochloa crus-galli; conditions: 0 to 10 scale
How it was run: as §1

[5] = system: rape; assay: Test C preemergence/postemergence greenhouse plant response rating 0 to 100; type: in vivo, Brassica napus; conditions: for Plant response rating, Rape: 62 g/ha, 0 to 100 scale
How it was run: as §2

[6] = system: morningglory; assay: Test B preemergence/postemergence greenhouse plant response rating 0 to 10; type: in vivo, Ipomoea hederacea; conditions: 0 to 10 scale
How it was run: as §1

[7] = system: bedstraw; assay: Test C preemergence/postemergence greenhouse plant response rating 0 to 100; type: in vivo, Galium aparine; conditions: for Plant response rating, Bedstraw: 62 g/ha, 0 to 100 scale
How it was run: as §2

[8] = system: wheat; assay: as above; type: in vivo, Triticum aestivum
How it was run: as §2

[9] = system: velvetleaf; assay: Test B preemergence/postemergence greenhouse plant response rating 0 to 10; type: in vivo, Abutilon theophrasti; conditions: 0 to 10 scale
How it was run: as §1

[10] = system: cotton; assay: as above; type: in vivo, Gossypium hirsutum; conditions: 0 to 10 scale
How it was run: as §1

[11] = system: blackgrass; assay: Test C preemergence/postemergence greenhouse plant response rating 0 to 100; type: in vivo, Alopecurus myosuroides; conditions: for Plant response rating, Blackgrass: 62 g/ha, 0 to 100 scale
How it was run: as §2

[12] = system: crabgrass; assay: as above; type: in vivo, Digitaria sanguinalis; conditions: for Plant response rating, Crabgrass: 62 g/ha, 0 to 100 scale
How it was run: as §2

[13] = system: wild oat; assay: as above; type: in vivo, Avena fatua
How it was run: as §2

[14] = POSTEMERGENCE, 62 g/ha, 0 to 100 scale

## CC(C)Oc1cc(-c2nn3c(c2Br)CCCC3)c(F)cc1Cl [Compound 38]
[1]; POSTEMERGENCE, Rate 50 g/ha
  Plant response rating, Wheat: 4
[1]; PREEMERGENCE, Rate 50 g/ha
  Plant response rating, Wheat: 0
[1]; Rate 200 g/ha, POSTEMERGENCE
  Plant response rating, Wheat: 6
[1]; Rate 200 g/ha, PREEMERGENCE
  Plant response rating, Wheat: 2
[2]; POSTEMERGENCE
  Plant response rating, Giant foxtail: 50
[2]; POSTEMERGENCE, Rate 1 g/ha
  Plant response rating (0 to 100), Giant foxtail: 20
[2]; POSTEMERGENCE, Rate 4 g/ha
  Plant response rating (0 to 100), Giant foxtail: 30
[2]; PREEMERGENCE
  Plant response rating, Giant foxtail: 0
[2]; PREEMERGENCE, Rate 1 g/ha
  Plant response rating (0 to 100), Giant foxtail: 0
[2]; PREEMERGENCE, Rate 4 g/ha
  Plant response rating (0 to 100), Giant foxtail: 0
[2]; Rate 16 g/ha, POSTEMERGENCE
  Plant response rating (0 to 100), Giant foxtail: 40
[2]; Rate 16 g/ha, PREEMERGENCE
  Plant response rating (0 to 100), Giant foxtail: 0
[3]; Rate 1 g/ha
  Plant response rating (0 to 100), Speedwell: 0
[3]; Rate 4 g/ha
  Plant response rating (0 to 100), Speedwell: 0
[3]; Rate 16 g/ha
  Plant response rating (0 to 100), Speedwell: 0
[4]; POSTEMERGENCE, Rate 50 g/ha
  Plant response rating, Barnyardgrass: 6
[4]; POSTEMERGENCE, Rate 200 g/ha
  Plant response rating, Barnyardgrass: 8
[4]; PREEMERGENCE, Rate 50 g/ha
  Plant response rating, Barnyardgrass: 0
[4]; Rate 200 g/ha, PREEMERGENCE
  Plant response rating, Barnyardgrass: 1
[5]; POSTEMERGENCE
  Plant response rating, Rape: 80
[5]; POSTEMERGENCE, Rate 1 g/ha
  Plant response rating (0 to 100), Rape: 20
[5]; POSTEMERGENCE, Rate 4 g/ha
  Plant response rating (0 to 100), Rape: 30
[5]; PREEMERGENCE
  Plant response rating, Rape: 30
[5]; PREEMERGENCE, Rate 1 g/ha
  Plant response rating (0 to 100), Rape: 0
[5]; PREEMERGENCE, Rate 4 g/ha
  Plant response rating (0 to 100), Rape: 10
[5]; Rate 16 g/ha, POSTEMERGENCE
  Plant response rating (0 to 100), Rape: 40
[5]; Rate 16 g/ha, PREEMERGENCE
  Plant response rating (0 to 100), Rape: 20
[6]; POSTEMERGENCE, Rate 50 g/ha
  Plant response rating, Morningglory: 8
[6]; PREEMERGENCE, Rate 50 g/ha
  Plant response rating, Morningglory: 0
[6]; Rate 200 g/ha, POSTEMERGENCE
  Plant response rating, Morningglory: 9
[6]; Rate 200 g/ha, PREEMERGENCE
  Plant response rating, Morningglory: 4
[7]; POSTEMERGENCE
  Plant response rating, Bedstraw: 90
[7]; POSTEMERGENCE, Rate 1 g/ha
  Plant response rating (0 to 100), Bedstraw: 20
[7]; PREEMERGENCE
  Plant response rating, Bedstraw: 50
[7]; PREEMERGENCE, Rate 1 g/ha
  Plant response rating (0 to 100), Bedstraw: 0
[7]; PREEMERGENCE, Rate 4 g/ha
  Plant response rating (0 to 100), Bedstraw: 0
[7]; Rate 4 g/ha, POSTEMERGENCE
  Plant response rating (0 to 100), Bedstraw: 50
[7]; Rate 16 g/ha, POSTEMERGENCE
  Plant response rating (0 to 100), Bedstraw: 50
[7]; Rate 16 g/ha, PREEMERGENCE
  Plant response rating (0 to 100), Bedstraw: 20
[8]; [14]
  Plant response rating, Wheat: 50
[8]; POSTEMERGENCE, Rate 1 g/ha
  Plant response rating (0 to 100), Wheat: 0
[8]; POSTEMERGENCE, Rate 4 g/ha
  Plant response rating (0 to 100), Wheat: 20
[8]; PREEMERGENCE, Rate 1 g/ha
  Plant response rating (0 to 100), Wheat: 0
[8]; PREEMERGENCE, Rate 4 g/ha
  Plant response rating (0 to 100), Wheat: 0
[8]; Rate 16 g/ha, POSTEMERGENCE
  Plant response rating (0 to 100), Wheat: 30
[8]; Rate 16 g/ha, PREEMERGENCE
  Plant response rating (0 to 100), Wheat: 0
[9]; POSTEMERGENCE, Rate 50 g/ha
  Plant response rating, Velvetleaf: 6
[9]; PREEMERGENCE, Rate 50 g/ha
  Plant response rating, Velvetleaf: 0
[9]; Rate 200 g/ha, POSTEMERGENCE
  Plant response rating, Velvetleaf: 10
[9]; Rate 200 g/ha, PREEMERGENCE
  Plant response rating, Velvetleaf: 7
[10]; POSTEMERGENCE, Rate 50 g/ha
  Plant response rating, Cotton: 9
[10]; POSTEMERGENCE, Rate 200 g/ha
  Plant response rating, Cotton: 10
[10]; PREEMERGENCE, Rate 50 g/ha
  Plant response rating, Cotton: 0
[10]; Rate 200 g/ha, PREEMERGENCE
  Plant response rating, Cotton: 9
[11]; POSTEMERGENCE
  Plant response rating, Blackgrass: 40
[11]; POSTEMERGENCE, Rate 1 g/ha
  Plant response rating (0 to 100), Blackgrass: 10
[11]; PREEMERGENCE
  Plant response rating, Blackgrass: 30
[11]; PREEMERGENCE, Rate 1 g/ha
  Plant response rating (0 to 100), Blackgrass: 0
[11]; PREEMERGENCE, Rate 4 g/ha
  Plant response rating (0 to 100), Blackgrass: 0
[11]; Rate 4 g/ha, POSTEMERGENCE
  Plant response rating (0 to 100), Blackgrass: 10
[11]; Rate 16 g/ha, POSTEMERGENCE
  Plant response rating (0 to 100), Blackgrass: 20
[11]; Rate 16 g/ha, PREEMERGENCE
  Plant response rating (0 to 100), Blackgrass: 0
[12]; POSTEMERGENCE
  Plant response rating, Crabgrass: 40
[12]; POSTEMERGENCE, Rate 1 g/ha
  Plant response rating (0 to 100), Crabgrass: 10
[12]; POSTEMERGENCE, Rate 4 g/ha
  Plant response rating (0 to 100), Crabgrass: 20
[12]; PREEMERGENCE
  Plant response rating, Crabgrass: 30
[12]; PREEMERGENCE, Rate 1 g/ha
  Plant response rating (0 to 100), Crabgrass: 0
[12]; PREEMERGENCE, Rate 4 g/ha
  Plant response rating (0 to 100), Crabgrass: 0
[12]; Rate 16 g/ha, POSTEMERGENCE
  Plant response rating (0 to 100), Crabgrass: 30
[12]; Rate 16 g/ha, PREEMERGENCE
  Plant response rating (0 to 100), Crabgrass: 10
[13]; [14]
  Plant response rating, Wild oat: 50
[13]; POSTEMERGENCE, Rate 1 g/ha
  Plant response rating (0 to 100), Wild oat: 0
[13]; POSTEMERGENCE, Rate 4 g/ha
  Plant response rating (0 to 100), Wild oat: 10
[13]; PREEMERGENCE, Rate 1 g/ha
  Plant response rating (0 to 100), Wild oat: 0
[13]; PREEMERGENCE, Rate 4 g/ha
  Plant response rating (0 to 100), Wild oat: 0
[13]; Rate 16 g/ha, POSTEMERGENCE
  Plant response rating (0 to 100), Wild oat: 30
[13]; Rate 16 g/ha, PREEMERGENCE
  Plant response rating (0 to 100), Wild oat: 0

— patent US6358885B1, “Substituted phenylheterocyclic herbicides” (Mississippi State University, priority 1992, dated 2002)
